Test results published in patent publication US12318452B2, “Degraders of WEE1 kinase” (DANA-FARBER CANCER INSTITUTE, INC., priority 2018, dated 2025).
“And” between values parts separate entries of the source, which are not always exact repeats. Identical values can stand only once.

Key:
[1] = target: PLK1 (Homo sapiens, UniProt P53350); assay: Z′-LYTE kinase activity assay for PLK1; format: biochemical; parameters: purchased Life Technologies (Invitrogen) commercial assay service; settings: Km ATP, average of two replicates ± SD
Description: (§1) LanthaScreen™ assays were conducted for Wee1 in a 10-point dose response as performed in the commercial assay service by Life Technologies™. Z′-LYTE™ assays were conducted for PLK1 as performed in the commercial assay service by Life Technologies™ in a 10-point dose response using Km ATP concentrations.
The selectivity of Wee1 degradation was then assessed by performing multiplexed mass spectrometry (MS)-based proteomics in MOLT4 cells treated with 100 nM of compound 13 for 2 hours (Donovan et al., Elife 7:e38430 (2018)).

[2] = target: T1, Wee1 (Homo sapiens, UniProt P30291); assay: Cellular degradation of Wee1 by immunoblot, 6-hour treatment of MOLT4 cells; format: cell-based; parameters: endogenous in cells; host or cells: MOLT4 (wild type; CRBN-/- as control); settings: MOLT-4, 1 μM, MOLT4 cells, approximated by immunoblot, read-out: Extent of Degradation of Wee1
Description: General Protocol: HT-29, MOLT4 wild type (WT) or CRBN^-/- cells were plated in a 6 well plate and treated for 6 hours with the indicated concentrations of the inventive compounds and control. HT-29 cells were cultured in McCoy's Media supplemented with 10% FBS and 1% Penicillin/Streptomycin. MOLT4 WT and CRBN^-/- cells were cultured in Roswell Park Memorial Institute (RPMI) medium supplemented with 10% FBS and 1% Penicillin/Streptomycin. Mycoplasma testing was performed every month and all lines were negative. Immunoblotting: Cells were washed with phosphate-buffered saline (PBS) and then lysed using radioimmunoprecipitation assay (RIPA) buffer supplemented with protease and phosphatase inhibitor cocktail (Roche) on ice for 15 minutes. The lysates were centrifuged at 14,000 rpm for 15 minutes at 4° C. and protein was quantified by bicinchoninic acid (BCA) assay (PierceTM). Primary antibodies used include: Wee1 ([…]) (Cell Signaling Technology®, 13084S), polo-like kinase 1 (PLK1) (Thermo Fisher Scientific, 37-7000), phosphor-cdc2 (Y15) (10A11) (Cell Signaling Technology®, […]), phospho-histone H3 ([…]) (Cell Signaling Technology®, […]), Ikaros ([…]) (Cell Signaling Technology®, 14859S), Aiolos ([…]) (Cell Signaling Technology®, 15103), casein kinase 1 alpha (Abcam®, 108296), β-actin (Cell Signaling Technology®, 8H10D10). FIG. 2A is an immunoblot showing that compound 13 degraded Wee1 after a 6-hour treatment in MOLT4 cells, and induced the downstream changes expected from Wee1 loss-including a decrease in phosphorylated cyclin-dependent kinase 1 (pCDK1) (Y15) and an increase in pH 3. […] Degradation of Wee1 by compound 13 was rescued in MOLT4 CRBN^-/- cells. MOLT4 WT and CRBN^-/- cells were plated in a 6-well plate at 2.25 million cells per well in 3 mL media (RPMI+10% FBS+1% Penn/Strep). After treatment with the indicated concentrations of candidate compounds, cells were incubated for 6 hours at 37° C. 5% CO2. To harvest, the cells were washed 1× with cold PBS, then collected by centrifugation. Cell pellets were lysed in RIPA buffer with protease and phosphatase inhibitors (Roche). Lysates were clarified by centrifugation, and protein concentrations were normalized using a BCA assay (Thermo ScientificTM). The samples were diluted with 4×LDS+10% β-mercaptoethanol, and were boiled at 95° C. for 5 minutes. Proteins of interest were then assessed by western blotting. […] The experimental protocol was the same as in Example 28.

[3] = target: T1, Wee1; assay: LanthaScreen FRET-based biochemical binding assay for Wee1; settings: LanthaScreen Binding activity assay; average of two replicates ± SD
Description: as §1

[4] = target: T1, Wee1; assay: Wee1 degradation immunoblot in MOLT4 cells, 5-hr dose response and time course; format: cell-based; parameters: endogenous in cells; host or cells: MOLT4 (wild type; CRBN-/- as control); settings: MOLT4 cells
Description: Whole cell lysates for immunoblotting were prepared by pelleting cells from each cell line at 4° C. (300 g) for 5 minutes. The resulting cell pellets were washed 1× with ice-cold PBS and then resuspended in RIPA lysis buffer (Sigma, cat #R0278) supplemented with protease and phosphatase inhibitor tablets (Roche cat #4906845001). Lysates were clarified at 14,000 rpm for 15 minutes at 4° C. prior to quantification by BCA assay (Pierce™, cat #23225). Whole cell lysates were loaded into Bolt 4-12% Bis-Tris Gels (Thermo Fisher, cat #NW04120BOX) and separated by electrophoreses at 95 V for 1.5 hours. The gels were transferred to a nitrocellulose membrane using the iBlot® Gel Transfer at P3 for 7 minutes (Thermo Fisher, cat #IB23001) and then blocked for 1 hour at room temperature in Odyssey® blocking buffer (LICOR® Biosciences, cat #927-50010). Membranes were probed using antibodies against the relevant proteins at 4° C. overnight in 20% Odyssey® Blocking Buffer in 1×TBST. Membranes were then washed three times with 1×TBST (at least 5 minutes per wash) followed by incubation with the IRDye® goat anti-mouse (LICOR®, cat #926-32210) or goat anti-rabbit (LICOR®, cat #926-32211) secondary antibody (diluted 1:10,000) in 20% Odyssey® Blocking Buffer in 1×TBST for 1 hour at room temperature. After three washes with 1×TBST (at least 5 minutes per wash), the immunoblots were visualized using the ODYSSEY® Infrared Imaging System (LICOR®).
MOLT4 cells were plated at 1.5 million cells per well in a 6-well plate, with 3 mL of media per well. Cells were then immediately treated with the indicated concentration of the indicated compound and incubated for the indicated amount of time. Cells were collected by transferring each well to a 15 mL conical, centrifuging (1000 rpm for 3 min), then washing the cell pellet 2× with cold PBS. Each cell pellet was then lysed in 100 μL of RIPA lysis buffer (+protease/phosphatase inhibitors). Samples were normalized and prepped in 4×LDS+10% β-mercaptoethanol and boiled for 5 min at 95° C. Lysates were probed for specified proteins by western blotting using the Bolt® system (Life Technologies™)
To confirm that compound 13-mediated Wee1 degradation is CRBN dependent (FIG. 1D), Wee1 degradation profiles in parental versus CRBN^−/− MOLT4 cells were compared. In parental MOLT4 cells, compound 13 induced potent Wee1 degradation after 5 hours, with maximal degradation observed at 100 nM and a “hook effect” apparent at the top concentration of 10 μM, where compound 13:CRBN and compound 13-Wee1 binary complexes inhibit the formation of a productive ternary complex (Toure and Crews, Angew. Chem. 55:1966-1973 (2016)).
To evaluate the kinetics of Wee1 degradation, a time course study was performed in MOLT4 cells using 100 nM compound 13. Degradation occurred rapidly, with over 50% degradation achieved within 30 min, and complete degradation reached by 3 hr (FIG. 4C).

[5] = test system: MOLT4 cells; assay: Cell cycle analysis by propidium iodide staining; format: cell-based; settings: 1 μM, 24 hours, MOLT4 cells
Description: MOLT4 cells were plated at 1.5 million cells per well in a 6-well plate, with 3 mL of media per well. Immediately after plating, cells were treated with the indicated concentrations of the indicated compound. At the indicated time points, cells were collected by transferring each well to a 15 mL conical, centrifuging (1000 rpm for 3 min), and then washing the cell pellet 3× with cold PBS. Cell pellets were then fixed with 1 mL cold 80% ethanol in PBS at 4° C. overnight. The cell pellets were then washed by adding 1 mL of PBS and then centrifuging (1500 rpm for 5 minutes), followed by aspiration of the PBS/ethanol mix. Cells were resuspended in cell cycle staining solution (100 μg/mL of RNAse A (Roche, 10109169001) and 50 μg/mL propidium iodide (Life Technologies™, P1304MP), diluted in PBS, and incubated for 10 minutes at room temperature. Cell cycle data was acquired by flow cytometry on a Guava® easyCyte™ flow cytometer (Millipore™) using the InCyte™ software. Data was analyzed using FlowJo®. N=3 biological replicates were used for each treatment condition.

[6] = test system: MOLT4 cells (parental, wild type); assay: CellTiter-Glo cell viability, 72 hours; format: cell-based; settings: 72-hr
Description: The indicated cell lines were plated in flat bottom 384-well plates (Corning® cat #3570). MOLT4 cells were plated at a density of 3,000 cells per well in 50 μL media, while OVCAR8, COV362, and Kuramochi cells were plated at a density of 750 cells per well in 50 μL media. Cells were treated the next day (except for MOLT4 cells, which were treated the same day as plating) with 0.1 μL of the indicated compounds in a four-fold dilution series using the Janus pinner. Cells were incubated with compounds for 72 hours at 37° C. 5% CO2. Anti-proliferative effects were then assessed by CellTiter-Glo® Luminescent Cell Viability Assay (Promega™ cat #G7570) according to the manufacturer's standards, measuring luminescence using an EnVision® plate-reader. IC50 values were determined using a non-linear regression curve fit in GraphPad Prism 8. N=4 biological replicates were used for each treatment condition.
MOLT4 cells were plated in a 384-well plate at 5,000 cells per well in 50 μL media (RPMI+10% FBS+1% Penn/Strep) and treated with 0.1 μL of the candidate compounds in four-fold dilution series using the Janus pinner. Cells were incubated with compounds for 72 hours at 37° C. 5% CO2. Anti-proliferative effects of these compounds were assessed 72 hours after compound addition using CellTiter-Glo® (Promega, cat #G7571). All proliferation assays were performed in biological quadruplicate. […] Effects upon cell viability for compound 13 in the MOLT4 WT cells are therefore likely driven in part by Wee1 inhibition, and in part by CRBN-mediated Wee1 degradation. […] Degradation of Wee1 with compound 21 was mediated by VHL.

T1 sequence (P30291 whole entry): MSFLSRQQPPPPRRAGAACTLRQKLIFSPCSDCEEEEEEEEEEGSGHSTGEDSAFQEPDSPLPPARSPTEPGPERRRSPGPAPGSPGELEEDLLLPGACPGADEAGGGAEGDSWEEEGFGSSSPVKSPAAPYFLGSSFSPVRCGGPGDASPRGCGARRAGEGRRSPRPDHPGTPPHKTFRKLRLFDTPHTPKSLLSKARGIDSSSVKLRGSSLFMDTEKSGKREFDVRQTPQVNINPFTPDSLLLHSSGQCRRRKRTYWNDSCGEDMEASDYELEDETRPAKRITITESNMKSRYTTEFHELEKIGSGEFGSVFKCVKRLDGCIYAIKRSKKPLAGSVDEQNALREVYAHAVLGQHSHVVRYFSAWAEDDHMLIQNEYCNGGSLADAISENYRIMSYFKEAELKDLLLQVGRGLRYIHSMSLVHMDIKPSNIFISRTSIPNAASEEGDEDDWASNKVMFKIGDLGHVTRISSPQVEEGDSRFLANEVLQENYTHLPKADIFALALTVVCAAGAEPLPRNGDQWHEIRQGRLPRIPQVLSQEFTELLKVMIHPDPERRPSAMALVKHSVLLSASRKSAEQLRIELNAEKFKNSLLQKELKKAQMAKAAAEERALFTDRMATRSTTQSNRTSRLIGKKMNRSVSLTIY
Sequence of PLK1 (P53350 whole entry): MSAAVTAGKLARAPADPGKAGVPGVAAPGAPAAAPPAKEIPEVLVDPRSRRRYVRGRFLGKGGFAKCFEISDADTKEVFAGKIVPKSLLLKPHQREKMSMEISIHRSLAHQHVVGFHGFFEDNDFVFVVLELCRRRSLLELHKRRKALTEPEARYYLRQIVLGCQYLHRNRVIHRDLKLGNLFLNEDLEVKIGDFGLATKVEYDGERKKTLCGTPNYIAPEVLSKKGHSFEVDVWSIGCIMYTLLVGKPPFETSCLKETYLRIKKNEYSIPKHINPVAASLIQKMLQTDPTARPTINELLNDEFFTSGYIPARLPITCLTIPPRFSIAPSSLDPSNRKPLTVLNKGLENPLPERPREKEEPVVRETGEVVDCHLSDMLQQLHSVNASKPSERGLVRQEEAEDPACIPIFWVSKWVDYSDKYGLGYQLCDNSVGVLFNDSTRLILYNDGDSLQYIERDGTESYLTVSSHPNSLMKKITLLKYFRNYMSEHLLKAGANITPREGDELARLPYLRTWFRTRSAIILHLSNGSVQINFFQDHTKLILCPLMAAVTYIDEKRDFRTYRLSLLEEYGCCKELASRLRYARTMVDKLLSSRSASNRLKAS

Row | SMILES | IC50 [1] | percent Wee1 degradation at 1 µM [2] | IC50 [3] | Concentration giving maximal (sufficient) Wee1 degradation ([4]; 5-hr treatment) | Concentration required to achieve maximal Wee1 degradation ([4]; 5-hr treatment) | Wee1 degradation ([4]; 5-hr exposure, 100 nM-10 μM) | Effect on the cell cycle [5] | Antiproliferative activity [6]
1 | C=CCn1c(=O)c2cnc(Nc3ccc(N4CCN(CCOCCOCCOCCNc5cccc6c5C(=O)N(C5CCC(=O)NC5=O)C6=O)CC4)cc3)nc2n1-c1cccc(C(C)(C)O)n1 (stereo not drawn) [Compound 12, 4-((2-(2-(2-(2-(4-(4-((2-allyl-1-(6-(2-hydroxypropan-2-yl)pyridin-2-yl)-3-oxo-2,3-dihydro-1H-pyrazolo[3,4-d]pyrimidin-6-yl)amino)phenyl)piperazin-1-yl)ethoxy)ethoxy)ethoxy)ethyl)amino)-2-(2,6-dioxopiperidin-3-yl)isoindoline-1,3-dione] | 285 ± 14 nM | > 50% | 1 to 10 nM and 3.18 nM | 100 nM | – | – | – | –
2 | C=CCn1c(=O)c2cnc(Nc3ccc(N4CCN(CCCCCCNc5cccc6c5C(=O)N(C5CCC(=O)NC5=O)C6=O)CC4)cc3)nc2n1-c1cccc(C(C)(C)O)n1 (stereo not drawn) [Compound 11, 4-((6-(4-(4-((2-allyl-1-(6-(2-hydroxypropan-2-yl)pyridin-2-yl)-3-oxo-2,3-dihydro-1H-pyrazolo[3,4-d]pyrimidin-6-yl)amino)phenyl)piperazin-1-yl)hexyl)amino)-2-(2,6-dioxopiperidin-3-yl)isoindoline-1,3-dione] | 23.6 ± 4 nM | 25 to 50% | 4.46 ± 0.95 nM | – | – | degraded Wee1 | – | –
3 | Nc1cccc2c1CN(C1CCC(=O)NC1=O)C2=O (stereo not drawn) [Lenalidomide, reference compound] | – | – | – | – | – | – | did not induce any significant changes | no detectable antiproliferative activity

More lines, main results first:

Row | IC50 [1] | percent Wee1 degradation at 1 µM [2] | IC50 [3] | Concentration giving maximal (sufficient) Wee1 degradation ([4]; 5-hr treatment) | Concentration required to achieve maximal Wee1 degradation ([4]; 5-hr treatment) | Wee1 degradation ([4]; 5-hr exposure, 100 nM-10 μM) | SMILES | Effect on the cell cycle [5] | Antiproliferative activity [6]
4 | 118 ± 6 nM | > 50% | 1 to 10 nM and 7.28 nM | – | 1 µM | – | C=CCn1c(=O)c2cnc(Nc3ccc(N4CCN(CCCNC(=O)CCOCCOCCNc5cccc6c5C(=O)N(C5CCC(=O)NC5=O)C6=O)CC4)cc3)nc2n1-c1cccc(C(C)(C)O)n1 (stereo not drawn) [Compound 7, N-(3-(4-(4-((2-allyl-1-(6-(2-hydroxypropan-2-yl)pyridin-2-yl)-3-oxo-2,3-dihydro-1H-pyrazolo[3,4-d]pyrimidin-6-yl)amino)phenyl)piperazin-1-yl)propyl)-3-(2-(2-((2-(2,6-dioxopiperidin-3-yl)-1,3-dioxoisoindolin-4-yl)amino)ethoxy)ethoxy)propanamide] | – | –
5 | – | > 50% | – | – | – | – | C=CCn1c(=O)c2cnc(Nc3ccc(N4CCN(CCCNc5cccc6c5C(=O)N(C5CCC(=O)NC5=O)C6=O)CC4)cc3)nc2n1-c1cccc(OC)n1 (stereo not drawn) [Compound 17, 4-((3-(4-(4-((2-Allyl-1-(6-methoxypyridin-2-yl)-3-oxo-2,3-dihydro-1H-pyrazolo[3,4-d]pyrimidin-6-yl)amino)phenyl)piperazin-1-yl)propyl)amino)-2-(2,6-dioxopiperidin-3-yl)isoindoline-1,3-dione] | – | –
